These results are taken from patent US20260285992A1, “GIP ACTIVITY MODULATORS AND ORTHOSTATIC INTOLERANCE” (Antag Therapeutics ApS, priority 2023, published 2026).

A short description of data set [1]: Orthostatic challenges before and after subcutaneous GIP (1-42) or placebo in fasted healthy subjects: heart rate, blood pressure and clinical signs. In kind it is in vivo, human. The procedure:
Synthetic human GIP (1-42) (GIP) (PolyPeptide Group, Strasbourg, France) was dissolved in a sodium hydrogen carbonate buffer with 0.5% human serum albumin in NaCl 9 mg/ml to a final concentration of 4 mg/ml. The solution was sterile filtered and dispensed into glass ampoules. On the appropriate study days, the GIP solutions were further diluted in saline (NaCl 9 mg/ml) to 125 μg/ml. Saline (NaCl 9 mg/mL) was used as placebo.
At the beginning of each study day, participants were weighed and received either a placebo injection or a weight-dependent GIP (1-42) dose of 2.7 μg/kg at time 0.
Four healthy, non-medicated participants between 33-40 years old (one male and three females) were included in the study. On each of the two study days, participants arrived after an overnight fast (at least 10 h fasting). To enable continuous heart rate monitoring, three electrodes compatible with the Holter Spiderview recorder were placed over the rib at V5, on the xiphoid muscle at the bottom of the sternum, and at the sternum over the manubrium after the skin was disinfected or shaved and disinfected for the male. Baseline characterization was initiated at timepoint-60 min and lasted for one hour. For baseline characterization, the participants alternated between the supine position and 10 min orthostatic challenges initiated at timepoints −45 min and −20 min. Orthostatic challenges were elicited by actively standing up from the hospital bed. At timepoint 0 min, the participants received a subcutaneous injection of either 2.7 μg/kg GIP or saline in a single-blinded manner. Following the injection, the participants rested in the supine position for one hour when not doing 10 min orthostatic challenges initiated at 15 min and 40 min post-injection. At time points −50 min, −40 min, −30 min, 10 min, 20 min, 45 min, and 55 min systolic- and diastolic blood pressure as well as heart rate were measured using the Omron M2 blood pressure monitor. The two study days were identical except for the injection of either GIP or saline. Fasting prior to administration of GIP mimics the body's natural response to eating, as eating induces GIP secretion. The method employed thus mimics fasting or postprandial conditions with the emphasis on GIP's physiological effects.

The conditions of data set [2]: in vivo; cited from earlier work.

In the case of “YAEGTFISDYSIAMDKIHQQDFVNWLLAQKGKKNDWKHNITQ [GIP]”, in data set [1] (by decreasing SBP and DBP and increasing heart rate, in men and women), the “effect on orthostatic tolerance (conclusion)” value is on record as “significantly worsens orthostatic tolerance”. The “subjects who experienced presyncope and had to lay down” value in data set [1] (first orthostatic challenge following GIP administration, four subjects, 2.7 μg/kg s.c.) is on record as “one of the subjects”. In addition, the “increase in heart rate over baseline supine levels, during the orthostatic challenge” value in data set [1] (four healthy fasted subjects, 2.7 μg/kg GIP (1-42) s.c., orthostatic challenge, Omron M2 monitor, FIG. 1) is reported as 36 bpm. In data set [1] (four healthy fasted subjects, 2.7 μg/kg GIP (1-42) s.c., supine, Omron M2 monitor, FIG. 1), the “increase in heart rate over baseline supine levels, supine position” value amounted to 17 bpm. Further, in data set [1] (four healthy fasted subjects, 2.7 μg/kg s.c., orthostatic challenge, FIG. 5), the “change in DBP during the orthostatic challenge compared to placebo levels” value is on record as −13 mmHg. In addition, the “decrease in SBP during the orthostatic challenges compared to placebo levels” value in data set [1] (four healthy fasted subjects, 2.7 μg/kg s.c., orthostatic challenges, FIG. 4) was determined as 12 mmHg. Moreover, the “decrease in SBP in the supine position compared to placebo levels” value in data set [1] (four healthy fasted subjects, 2.7 μg/kg s.c., supine, FIG. 4) is on record as 4-5 mmHg. For the same sequence, in data set [1] (four healthy fasted subjects, 2.7 μg/kg s.c., supine, FIG. 5), the “change in DBP in the supine position compared to placebo levels” value is reported as −10 mmHg. Also, the “subjects who reported significant dizziness and lightheadedness” value in data set [1] (orthostatic challenges post GIP-injection, 2.7 μg/kg s.c.) is “Three out of four subjects”. In data set [1] (two subjects, 2.7 μg/kg s.c., first orthostatic challenge post injection, FIGS. 2 and 3), the “increase in heart rate compared to baseline supine heart rate during the first orthostatic challenge post injection (Holter monitor)” value is 49-50 bpm. In data set [1] (two subjects, 2.7 μg/kg s.c., within 15 min, range depends on the subject, FIGS. 2 and 3), the “gradual increase in supine heart rate compared to baseline supine heart rate (Holter monitor)” value is on record as 19-28 bpm. Besides, the half-life in data set [2] is ~ 4 min.
